Source: US10787430B2, “Hemoglobin modifier compounds and uses thereof” (FronThera U.S. Pharmaceuticals LLC, priority 2016, dated 2020)
Converted amounts (≈) assume the structure as drawn. Where two headings read alike, the source gives them in different places.

Legend:
[1] = system: sickled HbSS whole blood (RBC sickling); test: Anti-sickling assay in HbSS sickled blood under hypoxic induction; type: cell-based, human; conditions: HbSS whole blood 26% Hct, 20 mins hypoxic induction; 0.2 mM compounds (FIG. 2)
Experimental: Materials: • Blood collected after informed consent from sickle cell individuals. • HBS buffer: 10 mM HEPES, 145 mM NaCl, pH 7.4 • Hemox buffer: Buffer provided for the hemox analyzer • Control Compound stock solution in DMSO (50 mM) stored at RT • Control Compound work solution (CWS): 10 μl of DMSO was added by Hamilton to 90 μl of HBS buffer (20 mM Hepes, 145 mM NaCl, pH 7.4) to create a working solution with a final concentration of 5 mM drug and 10% DMSO). • Compound stock solution in DMSO (50 mM) stored at RT • Compound work solution (WS): 10 μl of DMSO was added by Hamilton to 90 μl of HBS buffer (20 mM Hepes, 145 mM NaCl, pH 7.4) to create a working solution with a final concentration of 5 mM drug and 10% DMSO). • DMSO buffer: 10% DMSO (DB), same as WS but without drug. This will be used to maintain DMSO the same for different drug incubations. Test Protocol:
Collect blood from Clinic: Blood were collected after informed consent according to an approved IRB protocol. • Run Advia 120 analysis on SCD blood, to determine Hct. • Dilute blood to 20% Hct with HBS to total volume of 3 ml. • This cell suspension (CS) will be used for all experiments.
Incubation • 1. 200 μl CS • 2. 200 μl CS+20 μl CWS (5 mM diluted 10 times=0.5 mM control final)−(1% DMSO) • 3. 200 μl CS+20 μl WS (5 mM diluted 10 times=0.5 mM control final)−(1% DMSO) • 4. 200 μl CS+8 μl WS (0.2 mM drug final)+DB−(1% DMSO) • Incubate 30 minutes at 37° C.
50 μl into 1 ml HBS+2% BSA buffer. Eight time points (0-20 minutes) at 2% oxygen, 10,000 events each)
The sickling runs provide sets samples that need to be run on the AMNIS image flow and are subsequently analyzed with pixel analysis software.
Drug was provided at 50 mM concentration in DMSO, and stored at room temperature until use. 10 μl of DMSO was added by Hamilton to 90 μl of HBS buffer (20 mM Hepes, 145 mM NaCl, pH 7.4) to create a working solution with a final concentration of 5 mM drug and 10% DMSO). Blood was collected from a sickle cell patient in EDTA anticoagulant. To 200 μl of whole blood, a 20 or 8 μl of working solution was added resulting in a final drug concentration of 0.5 mM or 0.2 mM respectively. The DMSO concentration in both was corrected to 1%. The final hematocrit was measured by ADVIA analysis to be 26%. […] The delta hemox (%) comparing Example 29e with GBT440 is shown in FIG. 1A (0.2 mM) and FIG. 1B (0.5 mM).
Anti-sickling is shown in FIG. 2 with M: maximum percentage of sickled cells during 20 mins of hypoxic induction, T: time needed to reach 50% of M, and Z: baseline percentage of sickled cells prior to hypoxic induction.

[2] = target: T1, CYP3A4-M (Homo sapiens, UniProt P08684); test: CYP inhibition evaluation in human liver microsomes; type: in vitro ADME
T1 construct: from tissue; host or cells: human liver microsomes
Text: (§1) Example A5: CYP Inhibition Evaluation in Human Liver Microsomes

[3] = target: T2, CYP1A2 (Homo sapiens, UniProt P05177); test: as above; type: in vitro ADME
T2 construct: from tissue; host or cells: human liver microsomes
T2 sequence (P05177 1-516): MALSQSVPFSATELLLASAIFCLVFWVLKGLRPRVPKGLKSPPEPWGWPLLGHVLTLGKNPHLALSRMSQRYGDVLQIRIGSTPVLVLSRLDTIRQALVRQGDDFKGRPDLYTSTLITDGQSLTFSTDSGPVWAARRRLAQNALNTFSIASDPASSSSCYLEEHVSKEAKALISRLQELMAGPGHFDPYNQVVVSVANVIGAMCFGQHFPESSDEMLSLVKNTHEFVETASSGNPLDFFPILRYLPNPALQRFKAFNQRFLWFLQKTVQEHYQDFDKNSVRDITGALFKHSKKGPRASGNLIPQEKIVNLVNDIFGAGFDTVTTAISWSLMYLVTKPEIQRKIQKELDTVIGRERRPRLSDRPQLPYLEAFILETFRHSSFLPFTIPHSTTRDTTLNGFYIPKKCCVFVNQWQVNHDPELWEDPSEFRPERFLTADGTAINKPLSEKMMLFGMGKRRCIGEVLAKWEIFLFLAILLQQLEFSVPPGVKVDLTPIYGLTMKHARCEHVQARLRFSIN
Text: as §1

[4] = target: T3, CYP2D6 (Homo sapiens, UniProt P10635); test: as above; type: in vitro ADME
T3 construct: from tissue; host or cells: human liver microsomes
Text: as §1

[5] = Microsome stability evaluation in human liver microsomes; type: in vitro ADME; conditions: read-out: Human microsome, t½
Text: (§2) Example A6: Microsome Stability Evaluation in Human and Rat Liver Microsomes

[6] = Solubility in JP1, JP2 and FaSSIF buffers; type: physicochemical; conditions: 25 °C, thermodynamic from solid, room temperature
Experimental: Conditions: 1. JP1 buffer (84 mM HCl, 34.22 mM NaCl, pH 1.2); 2. JP2 buffer (50 mM phosphate buffer at pH 6.8); 3. FaSSIF buffer, pH 6.5 (Preparation: In about 0.9 L of purified water dissolve 0.420 g of NaOH (pellets), 4.470 g of NaH2PO4 (dihydrate), 6.186 g of NaCl; Adjust the pH to 6.5 with Sodium hydroxide 1N or Hydrochloric acid 1N, to make up to volume (1 L) with purified water at room temperature; Add 0.224 g of SIF Powder Original to about 0.5 L of pH 6.5 blank buffer and stir until powder is completely dissolved; Let stand for 2 hour. FaSSIF buffer is now ready to use.
Procedures: 1. accurately weighed about 2 mg test compounds and controls in whatman vials, then transferred 450 μL buffer in to the vials; 2. Filter pistons of miniuniprep vials were placed and compressed to the position of the liquid level to allow for contact. Vortexed for 2 minutes; 3. […] Miniunipreps were compressed to prepare the filtrates for injection into HPLC system; 5. Diluted the filtrates with buffer by a factor of 50 fold to make diluents; 6. Determined the test compound concentration of the diluents and filtrates using HPLC-UV.

[7] = Microsome stability evaluation in rat liver microsomes; type: in vitro ADME; conditions: read-out: Rat microsome, t½
Text: as §2

T1 sequence (P08684 whole entry): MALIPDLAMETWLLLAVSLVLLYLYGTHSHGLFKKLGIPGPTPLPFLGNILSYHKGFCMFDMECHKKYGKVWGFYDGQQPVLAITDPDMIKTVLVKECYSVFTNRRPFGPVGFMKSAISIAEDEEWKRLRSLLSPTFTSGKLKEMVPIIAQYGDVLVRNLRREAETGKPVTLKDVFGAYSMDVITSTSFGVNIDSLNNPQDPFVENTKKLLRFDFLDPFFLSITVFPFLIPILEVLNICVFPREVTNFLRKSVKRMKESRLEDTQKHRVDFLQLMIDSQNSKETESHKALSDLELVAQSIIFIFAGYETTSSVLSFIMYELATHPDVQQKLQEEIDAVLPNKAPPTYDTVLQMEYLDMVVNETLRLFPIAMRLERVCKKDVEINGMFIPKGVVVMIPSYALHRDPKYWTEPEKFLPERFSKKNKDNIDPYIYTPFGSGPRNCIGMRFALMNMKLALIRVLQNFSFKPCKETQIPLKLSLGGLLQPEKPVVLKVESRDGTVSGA
T3 sequence (P10635 whole entry): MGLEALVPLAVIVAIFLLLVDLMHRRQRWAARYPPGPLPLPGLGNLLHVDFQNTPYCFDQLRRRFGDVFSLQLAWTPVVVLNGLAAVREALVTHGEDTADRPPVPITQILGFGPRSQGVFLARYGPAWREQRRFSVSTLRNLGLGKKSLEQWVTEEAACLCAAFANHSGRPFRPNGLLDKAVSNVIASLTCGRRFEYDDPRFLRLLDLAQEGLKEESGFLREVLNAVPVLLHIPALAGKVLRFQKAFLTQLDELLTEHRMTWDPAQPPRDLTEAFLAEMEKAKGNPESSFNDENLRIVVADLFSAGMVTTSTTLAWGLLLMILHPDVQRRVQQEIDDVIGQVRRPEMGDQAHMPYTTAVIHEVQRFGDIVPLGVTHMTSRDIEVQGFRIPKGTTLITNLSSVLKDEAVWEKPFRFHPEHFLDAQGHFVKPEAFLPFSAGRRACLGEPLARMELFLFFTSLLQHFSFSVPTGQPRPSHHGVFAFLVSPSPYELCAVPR

- IC50 [2]: > 30 µM
- IC50 [3]: > 30 µM
- IC50 [4]: > 30 µM
- half-life [5]: 38 min
- solubility at 24 h ([6]; aqueous buffer, JP2 buffer (50 mM phosphate) pH 6.8, 24 hr, read-out: JP2 Solubility): 15.1 µg/mL (≈ 44.4 µM)
- solubility at 24 h ([6]; simulated gastric fluid, JP1 buffer pH 1.2, 24 hr, read-out: JP1 Solubility): 20 µg/mL (≈ 58.6 µM)
- solubility at 24 h ([6]; FaSSIF buffer pH 6.5, 24 hr, read-out: FaSSIF Solubility): 26.6 µg/mL (≈ 78.1 µM)
- half-life [7]: 18 min
Compound: [2H]C([2H])(Oc1cccc(O)c1C=O)c1cncnc1-c1ccnn1C(C)C [Example 38, 2-hydroxy-6-((4-(1-isopropyl-1H-pyrazol-5-yl)pyrimidin-5-yl)methoxy-d2)benzaldehyde]
- Reduction in % sickled cells compared to untreated [1]: −30.6%
